Measurements from paper PMC12040169 (PLOS Biology, 2025).

assay: in vitro; settings: human, hela cells, % viability

Compared with `CCOC(=O)COc1ccc2c(=O)c(Oc3ccc([N+](=O)[O-])cc3)c(C)oc2c1C` [CBK266092], `COc1ccc(-c2nc3ccccc3s2)cc1NC(=O)c1ccc(OCC(C)C)cc1` [CBK268878] is lower in viability at 28.5 h, 10 µM: 96.6% for the first, 94.7% for the second.

Compared with `O=C(NCc1cccs1)c1ccccc1Nc1cccc(C(F)(F)F)c1` [CBK149557], `O=C(NCCc1c[nH]c2ccc(F)cc12)Nc1ccccc1` [CBK269964] is higher in viability at 28.5 h, 10 µM: 104% for the first, 107% for the second.

Compared with `COc1ccc(Cc2c(C)nc3c(C(=O)NCC4CCCO4)cnn3c2C)cc1` (centres unmarked) [CBK162183], `COc1ccccc1-c1cnn2c(NCC3CCCO3)cc(C)nc12` (centres unmarked) [CBK304529] is lower in viability at 28.5 h, 10 µM: 88.5% for the first, 84.5% for the second.

Compared with `Cn1c2c(c3ccccc31)CCOC21CCNCC1` [CBK081142], `O=C(C(c1ccccc1)c1ccccc1)N1CCC2(CCNC2)C1` (centres unmarked) [CBK156729C] is lower in viability at 28.5 h, 10 µM: 99.3% for the first, 92.3% for the second.

Compared with `CC(C)(N)CNC(=O)c1cc(-c2ccc(Cl)cc2)[nH]n1` [CBK116554], `CN1C[C@H](CNC(=O)Nc2ccc(F)c(F)c2)[C@@H](c2ccc(Cl)c(Cl)c2)C1` [CBK076770] is higher in viability at 28.5 h, 10 µM: 91.5% for the first, 95.7% for the second.

Going from `Cc1cc(C)n(CCOc2nonc2N)n1` [CBK025818] to `CCOC(=O)Cn1c(C)nc(C)cc1=O` [CBK012419], the viability at 28.5 h, 10 µM falls from 117% to 103%.

First: COc1coc(CN2C(=O)COc3cccnc32)cc1=O [CBK307126]
Second: CS(=O)(=O)Nc1nccnc1N1CCN(Cc2ccc(Cl)c(Cl)c2)CC1 [CBK084267]
The viability at 28.5 h, 10 µM of the first is lower: 96.7% for the first, 98.7% for the second.

First: O=C(CN1C(=O)N2CCN=C2c2ccccc21)N1CCCCC1 [CBK283865]
Second: NC(=O)CN1C(=O)[C@@H]2CCCN2C(=O)c2ccccc21 [CBK283090]
The viability at 28.5 h, 10 µM of the first is lower: 91.1% for the first, 110% for the second.

Going from `O=C(O)C1CC=CCC1C(=O)NCCCCc1ccccc1` (centres unmarked) [CBK265460] to `CCN(CC)CCCNC(=O)N1CCN(Cc2ccccc2)CC1` [CBK155655], the viability at 28.5 h, 10 µM falls from 98.7% to 89.8%.

First: Cc1cc2c(cc3c(=O)n(CC(=O)N4CCCC4)nc(C)n32)o1 [CBK283631]
Second: Cc1cc2c(cc3c(=O)n(CCN4CCCC4)nc(C)n32)s1 [CBK284126]
The viability at 28.5 h, 10 µM of the first is lower: 93.1% for the first, 95.5% for the second.

Going from `Cc1ccc(Cl)cc1N1CCN(CC(O)COCc2ccc3c(c2)OCO3)CC1` (centres unmarked) [CBK278308C] to `CCCc1ccc(S(=O)(=O)N2CCN(Cc3ccc4c(c3)OCO4)CC2)cc1` [CBK074735], the viability at 28.5 h, 10 µM rises from 106% to 107%.

Compared with `COCC1(C(=O)N2CCN(c3ccccc3C#N)CC2)CCC1` [CBK304361], `O=C(c1ccc2[nH]ccc2c1)N1CCN(c2ncccn2)CC1` [CBK144500] is lower in viability at 28.5 h, 10 µM: 93% for the first, 87% for the second.

Compared with `CC(C)Oc1ccc(C(=O)C2=C(O)C(=O)N(Cc3cccnc3)C2c2ccncc2)cc1` (centres unmarked) [CBK264920], `COCCOC(=O)C1=C(C)N(c2ccc(C(=O)O)cc2)C(=O)NC1c1ccccc1Cl` (centres unmarked) [CBK296986] is higher in viability at 28.5 h, 10 µM: 90% for the first, 97% for the second.

Going from `Nc1ncccc1OCCOc1cccnc1N` [CBK022067] to `CCOc1ccccc1NC(=O)Nc1cccc(S(N)(=O)=O)c1` [CBK057282], the viability at 28.5 h, 10 µM rises from 89.3% to 91.3%.

First: CC1CCCCC1NC(=O)Cn1c(=O)n(C(C)C)c2ncccc21 (centres unmarked) [CBK283697]
Second: CC[C@H](Cn1c(=O)oc2ccccc21)NC(=O)C1CCCC1 [CBK284542]
The viability at 28.5 h, 10 µM of the first is lower: 88.8% for the first, 97.2% for the second.

Compared with `CC(=O)Nc1ccc2nc(NC(=O)c3ccc(C#N)cc3)sc2c1` [CBK287309], `CN(C)c1cccc(C(=O)Nc2nc3ccc(S(N)(=O)=O)cc3s2)c1` [CBK287602] is higher in viability at 28.5 h, 10 µM: 92.4% for the first, 95.8% for the second.

Going from `O=C1NC/C=C/CC2(CCN(Cc3c[nH]c4ccccc34)CC2)C(=O)NCCOc2ccccc21` [CBK292085] to `Cc1nn(C)cc1C(=O)N1CCC2(C/C=C/CCOc3ccccc3C(=O)NCCCNC2=O)CC1` [CBK292154], the viability at 28.5 h, 10 µM rises from 100% to 110%.

First: CCc1ccc(OCC(O)Cn2nnc(-c3ccc(CN4CCC(C)CC4)cc3)n2)cc1 (centres unmarked) [CBK161437T]
Second: COc1ccc(NC(=O)N[C@H]2C[C@@H](c3nc(-c4ccc(OC)cc4)no3)N(C)C2)cc1 [CBK288862]
The viability at 28.5 h, 10 µM of the first is higher: 111% for the first, 102% for the second.

First: Cn1c(=O)[nH]c(=O)c2c1nc(SCCN1CCCCC1)n2CCCc1ccccc1 [CBK269469]
Second: COc1ccc(C(=O)N2CCC3(CCCN(CCc4c[nH]c5ccccc45)C3)C2)cc1OC (centres unmarked) [CBK137143]
The viability at 28.5 h, 10 µM of the first is higher: 91.7% for the first, 89.9% for the second.

Going from `Cc1n[nH]c(=O)c2nc(-c3ccc(=O)[nH]n3)[nH]c12` [CBK008745] to `C=CCNCc1cc2c(C)nn(-c3ccccc3)c2[nH]c1=O` [CBK282898], the viability at 28.5 h, 10 µM falls from 102% to 88.7%.

Going from `Cc1cc(C)c(NC(=O)CSc2ncccc2-c2nc(C)no2)c(C)c1` [CBK287821] to `CCn1nc(NC(=O)CCn2c(C(F)F)cc3cccnc32)cc1C` [CBK285072], the viability at 28.5 h, 10 µM falls from 86.7% to 83.8%.

Compared with `COc1cc(OC)cc(-c2nnc(SCc3cccc(C(=O)O)c3)[nH]2)c1` [CBK268736], `COc1ccc(C(=O)N2CCC3(CCN(Cc4cc(OC)c(OC)c(OC)c4)C3)C2)cc1OC` (centres unmarked) [CBK132149] is lower in viability at 28.5 h, 10 µM: 108% for the first, 100% for the second.

First: Cn1nc(C(F)(F)F)c(C#N)c1Oc1ccc(C(C)(C)C)cc1 [CBK007398]
Second: CSc1nnc(-c2ccc(C(C)(C)C)cc2)n1Cc1ccco1 [CBK017071]
The viability at 28.5 h, 10 µM of the first is higher: 95.7% for the first, 92.1% for the second.

First: O=C(NC(C(=O)N/N=C/c1coc2ccccc2c1=O)c1n[nH]c(=O)c2ccccc12)c1ccccc1 (centres unmarked) [CBK262847]
Second: O=C(O)c1ccccc1-c1ccccc1C(=O)Nc1ccccc1-c1ccccc1 [CBK262843]
The viability at 28.5 h, 10 µM of the first is higher: 95.3% for the first, 84.4% for the second.

Compared with `CN(C)CCNC(=O)c1cncc(-c2ccc(C(=O)N3CCOCC3)cc2)c1` [CBK158619], `O=C(O)c1ccc(-c2ccc(N3CCN(C(=O)c4ccco4)CC3)nc2)cc1` [CBK037700] is higher in viability at 28.5 h, 10 µM: 95.6% for the first, 97.9% for the second.

First: CSc1cccc(NC(=O)Nc2ccc3c(c2)OCCO3)c1 [CBK300527]
Second: O=C(Nc1cccc2ncccc12)c1ccnc(N2CCOCC2)c1 [CBK287882]
The viability at 28.5 h, 10 µM of the first is higher: 104% for the first, 102% for the second.

First: O=C1NN(c2cccc(Cl)c2)C(=O)/C1=C\c1ccc(-c2ccc3c(c2)C(=O)NC3=O)o1 [CBK262970]
Second: Cc1ccc(C)c(NC(=O)C(Cc2ccccc2)N2C(=O)c3cc(Cl)c(Cl)cc3C2=O)c1 (centres unmarked) [CBK264232]
The viability at 28.5 h, 10 µM of the first is lower: 93.4% for the first, 109% for the second.

Compared with `CCOc1cc(C#N)cc(I)c1OCC(=O)O` [CBK266326], `O=C(O)CCn1c2ccccc2c2ccccc21` [CBK000208] is lower in viability at 28.5 h, 10 µM: 96.9% for the first, 87.7% for the second.

Going from `NC(=O)c1c(NC(=O)c2ccc(COc3cc(Cl)ccc3Cl)o2)sc2c1CCCC2` [CBK265775] to `COC(=O)c1c(-c2ccc(F)cc2)csc1NC(=O)CSc1ncnc2sc3c(c12)CCC3` [CBK265976], the viability at 28.5 h, 10 µM rises from 85.4% to 103%.

Compared with `Cc1cc(C)nc(N2CCC(CC(=O)NCCCc3ccc(F)cc3)CC2)n1` [CBK285995], `CCOC(=O)N1CCC(Nc2nc3ccccc3nc2OCc2cc(C)on2)CC1` [CBK171825] is higher in viability at 28.5 h, 10 µM: 83.1% for the first, 89.2% for the second.

Going from `CN(C)CCN(C)Cc1ccc2ccc3cccc4ccc1c2c34` [CBK261860] to `O=C(O)C1(Cc2ccc(-c3cccs3)cc2)CCNC1` (centres unmarked) [CBK281679], the viability at 28.5 h, 10 µM falls from 103% to 90.8%.

Going from `CCCNC(=O)Cn1nc(C)n2c(cc3sc(C)cc32)c1=O` [CBK284068] to `CCCCc1ccc(NC(=O)CSc2nnc(N)s2)c(C)c1` [CBK057659], the viability at 28.5 h, 10 µM rises from 86.1% to 91.9%.

Going from `CCCC1c2cccn2CCN1S(=O)(=O)c1ccc2[nH]c(=O)[nH]c(=O)c2c1` (centres unmarked) [CBK286388] to `CCC(C)(C)c1ccc(S(=O)(=O)N2CCCN(Cc3c[nH]c(=O)[nH]c3=O)CC2)cc1` [CBK062881], the viability at 28.5 h, 10 µM falls from 101% to 91.8%.

Going from `CCC1CCCCN1C(=O)c1ccc(OC)c(OC)c1` (centres unmarked) [CBK084527] to `COc1ccc(C2CNC(=O)N2C(=O)OC(C)(C)C)cc1OC1CCCC1` (centres unmarked) [CBK007281], the viability at 28.5 h, 10 µM falls from 117% to 93.8%.

First: COc1ccc(C2(C(F)(F)F)NC(=O)N3CCN=C3S2)cc1 (centres unmarked) [CBK019170]
Second: NC(=O)COc1ccc(/C=C/c2cc(C(F)(F)F)[nH]c(=O)n2)cc1 [CBK269475]
The viability at 28.5 h, 10 µM of the first is higher: 106% for the first, 90.6% for the second.

First: CCC(C)(C)c1ccc(S(=O)(=O)N2CCN(Cc3c(C)nn(C)c3C)CC2)cc1 [CBK062835]
Second: Cc1noc(C)c1C(=O)NC1(c2ccc(F)cc2)CCCC1 [CBK284013]
The viability at 28.5 h, 10 µM of the first is higher: 97.2% for the first, 93.4% for the second.

Compared with `C[S+]([O-])c1sc(Cl)c2c1C(=O)CCC2` (centres unmarked) [CBK005657], `CCc1nc2n(n1)CC(NC1CCCc3ccccc31)CC2` (centres unmarked) [CBK304837] is lower in viability at 28.5 h, 10 µM: 104% for the first, 95.6% for the second.

Going from `CC(C)(C)C(=O)N1CCC(c2nc3ccccc3cc2N)CC1` [CBK285039] to `COCC(=O)N1CCC(c2nc(C)n3c(C)csc23)CC1` [CBK285198], the viability at 28.5 h, 10 µM falls from 101% to 96.7%.

Compared with `CS(=O)(=O)c1nc2cccnc2s1` [CBK017260], `Cc1cc(C)nc(NC(=O)c2c(Cl)cccc2Cl)n1` [CBK058401] is higher in viability at 28.5 h, 10 µM: 95.2% for the first, 99.9% for the second.

Going from `COc1cc(C(=O)N2CCC3(CC2)CC(=O)c2ccc(-c4ccc(NS(C)(=O)=O)cc4)cc2O3)cc(OC)c1C` [CBK170163] to `COCCn1ccnc1C1CCN(C(=O)C(O)c2cccc(Cl)c2)CC1` (centres unmarked) [CBK306901], the viability at 28.5 h, 10 µM rises from 90.8% to 99.8%.

Compared with `Cc1cc([N+](=O)[O-])cc[n+]1[O-]` [CBK261014], `CC(=O)c1cc(C)c(C)cc1N` [CBK016322] is higher in viability at 28.5 h, 10 µM: 102% for the first, 127% for the second.

First: CC(=C\C(=O)O)/C(=C\c1ccc(Br)cc1)C(=O)O [CBK278280N]
Second: Cc1cn(-c2ccc(Br)cc2)[nH]c1=O [CBK288513]
The viability at 28.5 h, 10 µM of the first is lower: 88.1% for the first, 92.7% for the second.

First: CC/C(=N\C(N)=O)c1ccccc1 [CBK009865]
Second: O=C(Nc1nc(-c2ccccc2)ns1)c1ccncc1 [CBK113234]
The viability at 28.5 h, 10 µM of the first is higher: 82.9% for the first, 81.6% for the second.

Going from `O=C(CC1(C(F)(F)F)NCCN1)c1ccco1` [CBK022373] to `CN(C)CC(=O)Nc1cc(C(F)(F)F)ccc1Cl` [CBK307420], the viability at 28.5 h, 10 µM rises from 82.6% to 87.2%.

same assay, conditions: human, hela cells, % viability, bulk resorufin, single well

`COc1ccc(-c2ccc3c(c2)COC2(CCNCC2)O3)cn1` [CBK060913] showed a viability at 28.5 h, 10 µM of 81%.
